Source: patent US9572788B2, “Cell permeable inhibitors of anaphase promoting complex” (President and Fellows of Harvard College, priority 2014, dated 2017)
Read-outs that look alike come from different tables or passages of the source.

Assays:
[1] = test system: HeLa cells; assay: Immunofluorescence of mitotic spindle and interkinetochore distance; assay type: cell-based, human; set-up: Median inter-kinetochore distance / Average inter-kinetochore distance: unit not given here; settings: for Effect on mitotic spindle: asynchronous HeLa, 2 h, 12 μM proTAME, nocodazole or taxol
Method: HeLa cells grown in DMEM+10% FBS were plated on 25 mm glass coverslips in a E-well dish at a density of 130,000/ml×3 ml 48 h prior to treatment. They were then treated with 0.06% DMSO, 12 μM proTAME, 300 nM nocodazole or 300 nM taxol for 2 h. The cells were washed twice with PBS and fixed with 3% paraformaldehyde for 15 min. The cells were then washed with PBS and permeabilized with PBS plus 0.5% Triton X-100 for 2 min. The cells were then washed with PBS and blocked with PBS plus 5% FBS for 1 h. CREST antisera diluted 1:50 into PBS was added to the cells and incubated at room temperature for 1 h. The cells were washed with PBS and incubated with 1:1000 anti-human-Alexa 568 (Invitrogen, A21090) and 1:100 anti-α-tubulin-FITC for 1 h. The cells were then washed with PBS and the nuclei were stained with 1 μg/ml Hoechst 33342. The cover slips were mounted in 0.1M N-propylgallate in 9:1 glycerol:PBS. Z-series images were taken on a Nikon TE2000 microscope with PerkinElmer spinning disk confocal device. Maximal Z-projection images of individual cells were made by Image J. To measure interkinetochore distances, a straight line was drawn across a kinetochore pair in the same confocal plane and pixel intensities along the line were plotted so that each kinetochore would be represented by a peak on the line. The interkinetochore distance was calculated as the distance between the peaks. Fifty-five kinetochore pairs from 5 cells treated with DMSO or proTAME were measured and the p-value was calculated with a paired student test.

[2] = test system: HeLa H2B-GFP cells; assay: Live cell imaging of mitotic duration and cell fate; assay type: cell-based, human; settings: for Response of arrested cells to roscovitine: 100 μM roscovitine at 12 h after release; for Mitotic phenotype: synchronized HeLa H2B-GFP
Method: Detailed siRNA transfection and drug treatment schemes are described in supplemental experimental procedures. HeLa H2B-GFP cells were plated in DMEM with 10% FBS at 20% confluence. […] Live cell imaging was performed at 12 minute intervals on a Nikon TE2000E PFS inverted microscope fitted with an incubation chamber maintained at 37° C. and supplied with 5% CO2. Cell division was tracked by manual inspection of movies, and mitotic duration was measured as the time between the first frame of chromosome condensation and the frame of chromosome segregation (anaphase), decondensation (mitotic exit without anaphase) or cell death (chromosomes shrinking to a small bright dot).
The imaging plate was mounted onto a motorized stage (Prior ProScan II) on a Nikon TE2000E PFS inverted microscope fitted with an incubation chamber maintained at 37° C. and supplied with 5% CO2. A 20× Plan Apo 0.75 NA or 40× Plan Fluor 0.75 NA objective lens was used as indicated and images were collected with 2×2 binning. […] TIFF files of each image were exported from Elements and used to build stacks and Quicktime movies with Metamorph imaging software (Molecular Devices). For manual analysis, mitotic duration is counted as the time between the first frame of chromosome condensation and the frame of chromosome segregation (anaphase) or decondensation (mitotic exit in the presence of nocodazole) or cell death (chromosomes shrinking to a small bright dot).
HeLa H2B-GFP cells were plated in a 24-well plate in DMEM 10% FBS at 20% confluence one day prior to experiment and synchronized by double thymidine block as described above. […] Live cell imaging was set up as described above.
HeLa H2B-GFP cells were plated in a 24-well plate in DMEM+10% FBS at 20% confluence one day prior to the experiment and synchronized by double thymidine block as described above. The cells were released from the first thymidine block into 200 μl OptiMem without FBS. Transfection was performed immediately after the first thymidine release. […] The two mixtures were left at room temperature for 5 min before being mixed together and incubated for additional 20 min and then added to the cells to a final volume of 250 μl. 4 h after transfection, 250 μl of DMEM+20% FBS were added to cells.
HeLa H2B-GFP cells were plated in glass-bottom 24-well plates at 20% confluence one day prior to the experiment and synchronized by double thymidine block as described above. […] Cells were treated with 100 nM Hesperadin or DMSO 8 h after release from the second thymidine block and live cell imaging was set up as described above.
HeLa H2B-GFP cells were plated in a 24-well plate in DMEM+10% FBS at 20% confluence one day prior to experiment and synchronized by double thymidine block as synchronized above. […] Live cell imaging was set up as described above.
HeLa H2B-GFP cells were plated in a 24-well plate in DMEM+10% FBS at 20% confluence one day prior to experiment and synchronized by double thymidine block as described above. […] Untreated cells were used as the control. Live cell imaging was set up as described above. […] Alternatively, at 10 h after release from the second block, 10 μM MG132 with or without 25 μg/ml cycloheximide was added to the cells. […] Live cell imaging was set up as described above.
HeLa H2B-GFP cells were plated in a 24-well plate in DMEM+10% FBS at 20% confluence one day prior to experiment and synchronized by double thymidine block as described above. Mad2 siRNA transfection was performed as described above. At 10 h after release from the second block, 10 μM MG132 with or without 25 μg/ml cycloheximide was added to the cells. Live cell imaging was set up as described above. Manual analysis was focused only on cells that entered mitosis after MG132 addition.
Live cell imaging experiments. […] Nocodazole, taxol, proTAME, cyclinal and hesperadin were added to cells at 8 h after release. MG132 was added to cells at 10 h after release to allow mitotic entry.

[3] = Example 3, Mad2 knockdown, 12 μM proTAME, 300 nM nocodazole
[4] = Example 3, without Mad2 knockdown, 12 μM proTAME, 300 nM nocodazole
[5] = Fig 5A, synchronized HeLa cells, 780 nM
[6] = Fig 5A, synchronized HeLa cells, 3 μM
[7] = Fig 5A, synchronized HeLa cells, 12 μM
[8] = Fig 5B, control siRNA, low proTAME concentration (4 μM)
[9] = Fig 5B, partial Cdc20 knockdown (Cdc20 siRNA), proTAME 4 μM
[10] = Fig 6A, MAD2 siRNA, 12 μM proTAME, 300 nM nocodazole
[11] = Fig 6C, compounds 8 h after release, 12 μM proTAME, 300 nM nocodazole, 150 nM taxol, 100 nM hesperadin
[12] = Fig 8A, 12 μM proTAME, 300 nM nocodazole or 150 nM taxol, ± 25 μg/ml cycloheximide 4 h later
[13] = Fig S5G, after washout from nocodazole-induced arrest, release in proTAME 12 μM ± hesperadin 100 nM
[14] = double-thymidine synchronized cells, Mad2 knockdown
[15] = double-thymidine synchronized cells, without Mad2 knockdown
[16] = Fig 6A, control siRNA, 12 μM proTAME, 300 nM nocodazole

## COC(=O)[C@H](CCCN/C(=N\C(=O)OCOC(=O)Cc1ccccc1)NC(=O)OCOC(=O)Cc1ccccc1)NS(=O)(=O)c1ccc(C)cc1 [proTAME]
[1]; Fig 5E, 12 μM proTAME for 2 h
  Average inter-kinetochore distance: 1.26
  Median inter-kinetochore distance: 1.28
[1]
  Effect on mitotic spindle: no measurable differences in mitotic spindle morphology or inter-kinetochore distance
[2]
  Average mitotic duration: 1512.4 min
  Median mitotic duration: 1488 min
  Response of arrested cells to roscovitine: induces rapid mitotic exit
[2]; 3 μM
  Mitotic duration: 5 h
[2]; 12 μM proTAME
  Duration of mitotic arrest: over 28 h
[2]; 12 μM, SAC inactivated by Mad2 depletion
  Extension of mitotic duration: 72 min
[2]; 12 μM, intact SAC
  Extension of mitotic duration: 1380 min
[2]; Cdc20 levels reduced by 50% by siRNA, 4 μM
  Mitotic duration: 19.4 h
[2]; Example 2, 12 μM proTAME, DIC imaging
  Duration of mitotic arrest: over 10 hours
[2]; Example 2, 12 (μM) proTAME, fluorescence imaging
  Duration of metaphase arrest: more than 8 hours
[2]; Example 2, HeLa H2B-GFP fluorescence imaging, 3 μM proTAME, proAAME control
  Mitotic duration: 2 h
[2]; [3]
  Median mitotic duration: 120 min
[2]; [4]
  Median mitotic duration: 420 min
[2]; [5]
  Average mitotic duration: 165.4 min
  Median mitotic duration: 156 min
[2]; [6]
  Average mitotic duration: 444.6 min
  Median mitotic duration: 348 min
[2]; [7]
  Average mitotic duration: 1640.5 min
  Median mitotic duration: 1680 min
[2]; [8]
  Average mitotic duration: 496.5 min
  Median mitotic duration: 288 min
[2]; [9]
  Average mitotic duration: 1235.3 min
  Median mitotic duration: 1170 min
[2]; [10]
  Average mitotic duration: 121.7 min
  Median mitotic duration: 84 min
[2]; [11]
  Average mitotic duration: 1329.3 min
  Median mitotic duration: 1272 min
[2]; [12]
  Average mitotic duration: 1052.0 min
  Median mitotic duration: 972 min
[2]; [13]
  Average mitotic duration: 1516.4 min
  Median mitotic duration: 1410 min
[2]; Mad2-knockdown cells, proTAME 12 μM, cyclinal 100 μM
  Effect on mitotic exit: only transiently delayed mitotic exit
[2]; Mad2 knockdown cells (12 min without proTAME)
  Median mitotic duration: 84 min
[2]; control-transfected cells, 4 μM
  Mitotic duration: 4.8 h
[2]; [14]
  Duration of mitotic arrest: 1.4 h
[2]; [15]
  Duration of mitotic arrest: 24.6 h
[2]; in the absence of Mad2
  Duration of mitotic arrest: approximately 2 hours
[2]; in the presence of hesperadin
  Effect on mitotic exit: only transiently delayed mitotic exit
[2]; 780 nM or 3 μM
  Mitotic phenotype: remained in metaphase for up to several hours, but then proceeded through a normal anaphase
[2]; 12 μM
  Mitotic phenotype: arrested in metaphase and subsequently died
[2]; synchronized, drugs 10 hrs after release, proTAME 1 μM, MG132 0.5 μM
  Median mitotic arrest: 216 min
[2]; synchronized, drugs 10 hrs after release, proTAME 3 μM, low-dose MG132
  Median mitotic delay/arrest: 438 min
[2]; unsynchronized HeLa H2B-GFP, taxol 10 nM, proTAME 3 μM, control 60 min
  Median mitotic duration: 132 min

## COC(=O)Nc1nc2ccc(C(=O)c3cccs3)cc2[nH]1 [Nocodazole, reference compound]
[1]
  Effect on mitotic spindle: strongly perturbed spindle organization
[2]; 10 nM nocodazole
  Prolongation of mitosis: 20 min
[2]; 10 nM, SAC-proficient cells
  Extension of mitotic duration: 20 min
[2]
  Response of arrested cells to roscovitine: induced instantaneous mitotic exit
[2]; [3]
  Median mitotic duration: 30 min
[2]; [4]
  Median mitotic duration: 1230 min
[2]; [10]
  Average mitotic duration: 98.2 min
  Median mitotic duration: 36 min
[2]; [16]
  Average mitotic duration: 1680.1 min
  Median mitotic duration: 1812 min
[2]; [11]
  Average mitotic duration: 1851.8 min
  Median mitotic duration: 2094 min
[2]; [12]
  Average mitotic duration: 1777.0 min
  Median mitotic duration: 2160 min
[2]; [14]
  Duration of mitotic arrest: 0.6 h
[2]; [15]
  Duration of mitotic arrest: 30 h
